PubChem BioAssay AID2060506 (Molecular Pharmacology Branch, DTP, NCI, 2025)
Values belong to the molecule of their own block, whether it stands above or below them.

System: 598228-144-R-J1-PDC complex spheroid viability
Assay: Anticancer human tumor 598228-144-R-J1-PDC patient-derived serous endometrial adenocarcinoma cell line growth inhibition [GQUAD]
Conditions: for IC50: curve of first compound; for viability, T/C: stronger effect = lower value
How it was run: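 Multi-cell-type spheroids of tumor cells with HUVEC and mesenchymal stem cells, treated with drug combinations. Concentrations descend in half-log steps from near clinical Cmax, or from 10 microM where Cmax is unknown; viability read-out.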

[1] = second compound 0.0316 µM, first compound 0.0316 µM
[2] = second compound 0.0316 µM, first compound 0.1 µM
[3] = second compound 0.0316 µM, first compound 0.316 µM
[4] = second compound 0.0316 µM, first compound 1 µM
[5] = second compound 0.0316 µM, first compound 3.16 µM
[6] = second compound 0.0316 µM, first compound 10 µM
[7] = second compound 0.1 µM, first compound 0.0316 µM
[8] = second compound 0.1 µM, first compound 0.1 µM
[9] = second compound 0.1 µM, first compound 0.316 µM
[10] = second compound 0.1 µM, first compound 1 µM
[11] = second compound 0.1 µM, first compound 3.16 µM
[12] = second compound 0.1 µM, first compound 10 µM
[13] = second compound 0.316 µM, first compound 0.0316 µM
[14] = second compound 0.316 µM, first compound 0.1 µM
[15] = second compound 0.316 µM, first compound 0.316 µM
[16] = second compound 0.316 µM, first compound 1 µM
[17] = second compound 0.316 µM, first compound 3.16 µM
[18] = second compound 0.316 µM, first compound 10 µM
[19] = second compound 1 µM, first compound 0.0316 µM
[20] = second compound 1 µM, first compound 0.1 µM
[21] = second compound 1 µM, first compound 0.316 µM
[22] = second compound 1 µM, first compound 1 µM
[23] = second compound 1 µM, first compound 3.16 µM
[24] = second compound 1 µM, first compound 10 µM
[25] = second compound 3.16 µM, first compound 0.0316 µM
[26] = second compound 3.16 µM, first compound 0.1 µM
[27] = second compound 3.16 µM, first compound 0.316 µM
[28] = second compound 3.16 µM, first compound 1 µM
[29] = second compound 3.16 µM, first compound 3.16 µM
[30] = second compound 3.16 µM, first compound 10 µM
[31] = second compound 10 µM, first compound 0.0316 µM
[32] = second compound 10 µM, first compound 0.1 µM
[33] = second compound 10 µM, first compound 0.316 µM
[34] = second compound 10 µM, first compound 1 µM
[35] = second compound 10 µM, first compound 3.16 µM
[36] = second compound 10 µM, first compound 10 µM
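Note: spheroids exposed to the agents for one week before reading.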
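Throughout, for viability, T/C: percent of vehicle DMSO control viability so 100% = untreated growth.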

SMILES: O=C(NO)c1cnc(N2CCN(S(=O)(=O)c3ccc4ccccc4c3)CC2)nc1 + CN(C)c1ccc(Nc2c3ccc(NC(=O)CCN4CCCC4)cc3nc3cc(NC(=O)CCN4CCCC4)ccc23)cc1
IC50 (second compound 0.0316 µM): 72.9 nM
IC50 (second compound 0.1 µM): 104 nM
IC50 (second compound 0.316 µM): 100 nM
IC50 (second compound 1 µM): 125 nM
IC50 (second compound 3.16 µM): 83.2 nM
IC50 (second compound 10 µM): 52.6 nM
viability, T/C [1]: 79.4%
viability, T/C [2]: 35.2%
viability, T/C [3]: 26.3%
viability, T/C [4]: 0.43%
viability, T/C [5]: 0.48%
viability, T/C [6]: 0.27%
viability, T/C [7]: 87.8%
viability, T/C [8]: 49.5%
viability, T/C [9]: 24%
viability, T/C [10]: 0.39%
viability, T/C [11]: 0.39%
viability, T/C [12]: 0.25%
viability, T/C [13]: 81.3%
viability, T/C [14]: 49.5%
viability, T/C [15]: 18.3%
viability, T/C [16]: 0.5%
viability, T/C [17]: 0.26%
viability, T/C [18]: 0.42%
viability, T/C [19]: 92.3%
viability, T/C [20]: 56.6%
viability, T/C [21]: 21.2%
viability, T/C [22]: 0.43%
viability, T/C [23]: 0.22%
viability, T/C [24]: 0.38%
viability, T/C [25]: 108%
viability, T/C [26]: 38.9%
viability, T/C [27]: 8.39%
viability, T/C [28]: 0.37%
viability, T/C [29]: 0.29%
viability, T/C [30]: 0.29%
viability, T/C [31]: 73.7%
viability, T/C [32]: 19.8%
viability, T/C [33]: 5.5%
viability, T/C [34]: 0.39%
viability, T/C [35]: 0.39%
viability, T/C [36]: 0.34%

SMILES: CCCS(=O)(=O)Nc1ccc(F)c(C(=O)c2c[nH]c3ncc(-c4ccc(Cl)cc4)cc23)c1F + Cc1[nH]c2ccc(F)cc2c1-c1nc2c3cccnc3c3ncccc3c2[nH]1
IC50 (second compound 0.0316 µM): 8500 nM
IC50 (second compound 0.1 µM): 8720 nM
IC50 (second compound 0.316 µM): > 10000 nM
IC50 (second compound 1 µM): 9540 nM
IC50 (second compound 3.16 µM): < 31.6 nM
IC50 (second compound 10 µM): 8200 nM
viability, T/C [1]: 130%
viability, T/C [2]: 118%
viability, T/C [3]: 135%
viability, T/C [4]: 115%
viability, T/C [5]: 114%
viability, T/C [6]: 39.2%
viability, T/C [7]: 103%
viability, T/C [8]: 112%
viability, T/C [9]: 97.9%
viability, T/C [10]: 106%
viability, T/C [11]: 95.5%
viability, T/C [12]: 43.6%
viability, T/C [13]: 122%
viability, T/C [14]: 126%
viability, T/C [15]: 102%
viability, T/C [16]: 103%
viability, T/C [17]: 129%
viability, T/C [18]: 51.6%
viability, T/C [19]: 80.9%
viability, T/C [20]: 71.9%
viability, T/C [21]: 84.2%
viability, T/C [22]: 76%
viability, T/C [23]: 92.2%
viability, T/C [24]: 48.8%
viability, T/C [25]: 39.3%
viability, T/C [26]: 48.6%
viability, T/C [27]: 43.1%
viability, T/C [28]: 56.4%
viability, T/C [29]: 56.2%
viability, T/C [30]: 31.1%
viability, T/C [31]: 73.4%
viability, T/C [32]: 65.1%
viability, T/C [33]: 78.5%
viability, T/C [34]: 70.4%
viability, T/C [35]: 83.5%
viability, T/C [36]: 45.1%

SMILES: CCc1c2c(nc3ccc(O)cc13)-c1cc3c(c(=O)n1C2)COC(=O)[C@]3(O)CC + CN(C)c1ccc(Nc2c3ccc(NC(=O)CCN4CCCC4)cc3nc3cc(NC(=O)CCN4CCCC4)ccc23)cc1
IC50 (second compound 0.0316 µM): 7.57 nM
IC50 (second compound 0.1 µM): 13.5 nM
IC50 (second compound 0.316 µM): 12.1 nM
IC50 (second compound 1 µM): < 0.999 nM
IC50 (second compound 3.16 µM): 15 nM
IC50 (second compound 10 µM): < 0.999 nM
viability, T/C (second compound 0.0316 µM, first compound 0.000999 µM): 68.8%
viability, T/C (second compound 0.0316 µM, first compound 0.00316 µM): 56.2%
viability, T/C (second compound 0.0316 µM, first compound 0.00999 µM): 45.6%
viability, T/C [1]: 39.7%
viability, T/C (second compound 0.0316 µM, first compound 0.0999 µM): 30.5%
viability, T/C [3]: 18.8%
viability, T/C (second compound 0.1 µM, first compound 0.000999 µM): 65.3%
viability, T/C (second compound 0.1 µM, first compound 0.00316 µM): 53.1%
viability, T/C (second compound 0.1 µM, first compound 0.00999 µM): 56.1%
viability, T/C [7]: 41.2%
viability, T/C (second compound 0.1 µM, first compound 0.0999 µM): 25.3%
viability, T/C [9]: 15.5%
viability, T/C (second compound 0.316 µM, first compound 0.000999 µM): 70.2%
viability, T/C (second compound 0.316 µM, first compound 0.00316 µM): 50.4%
viability, T/C (second compound 0.316 µM, first compound 0.00999 µM): 45.7%
viability, T/C [13]: 55.3%
viability, T/C (second compound 0.316 µM, first compound 0.0999 µM): 27.7%
viability, T/C [15]: 16.9%
viability, T/C (second compound 1 µM, first compound 0.000999 µM): 50.5%
viability, T/C (second compound 1 µM, first compound 0.00316 µM): 42%
viability, T/C (second compound 1 µM, first compound 0.00999 µM): 49.9%
viability, T/C [19]: 49%
viability, T/C (second compound 1 µM, first compound 0.0999 µM): 27.7%
viability, T/C [21]: 15.9%
viability, T/C (second compound 3.16 µM, first compound 0.000999 µM): 58.6%
viability, T/C (second compound 3.16 µM, first compound 0.00316 µM): 57.2%
viability, T/C (second compound 3.16 µM, first compound 0.00999 µM): 59.1%
viability, T/C [25]: 37.4%
viability, T/C (second compound 3.16 µM, first compound 0.0999 µM): 26%
viability, T/C [27]: 16.8%
viability, T/C (second compound 10 µM, first compound 0.000999 µM): 60.6%
viability, T/C (second compound 10 µM, first compound 0.00316 µM): 33.6%
viability, T/C (second compound 10 µM, first compound 0.00999 µM): 37.7%
viability, T/C [31]: 45.6%
viability, T/C (second compound 10 µM, first compound 0.0999 µM): 23.5%
viability, T/C [33]: 10.5%

IC50 (second compound 0.0316 µM): 1390 nM
IC50 (second compound 0.1 µM): 887 nM
IC50 (second compound 0.316 µM): 1200 nM
IC50 (second compound 1 µM): 1260 nM
IC50 (second compound 3.16 µM): 398 nM
IC50 (second compound 10 µM): < 31.6 nM
SMILES: CC(C)(O)C1CCC(Nc2ccc3ncc(-c4cccc(C(F)(F)F)c4)n3n2)CC1 (stereo not drawn) + Cc1cnc(CNC(=O)c2c(=O)c3ccc(N4CCCN(C)CC4)nc3n3c2sc2ccccc23)cn1
viability, T/C [1]: 76.5%
viability, T/C [2]: 93.7%
viability, T/C [3]: 73.2%
viability, T/C [4]: 62.9%
viability, T/C [5]: 16.7%
viability, T/C [6]: 17.8%
viability, T/C [7]: 73.7%
viability, T/C [8]: 69.2%
viability, T/C [9]: 70.2%
viability, T/C [10]: 46.4%
viability, T/C [11]: 22.9%
viability, T/C [12]: 10.9%
viability, T/C [13]: 77%
viability, T/C [14]: 53.6%
viability, T/C [15]: 74.7%
viability, T/C [16]: 56.1%
viability, T/C [17]: 17.7%
viability, T/C [18]: 17.6%
viability, T/C [19]: 64.2%
viability, T/C [20]: 45.9%
viability, T/C [21]: 58.2%
viability, T/C [22]: 65.8%
viability, T/C [23]: 13.6%
viability, T/C [24]: 18.3%
viability, T/C [25]: 51.2%
viability, T/C [26]: 56.8%
viability, T/C [27]: 55.2%
viability, T/C [28]: 32.6%
viability, T/C [29]: 0.22%
viability, T/C [30]: 0.19%
viability, T/C [31]: 25.4%
viability, T/C [32]: 0.49%
viability, T/C [33]: 33%
viability, T/C [34]: 0.33%
viability, T/C [35]: 0.26%
viability, T/C [36]: 5.96%
